Test results: ChEMBL document CHEMBL4219190, “Studies on synthesis of novel pyrido[2,3-d]pyrimidine derivatives, evaluation of their antimicrobial activity and molecular docking” (Bioorg Med Chem Lett, 2018)
Activity calls are given as the source filed them.

Columns and labels:
Candida parapsilosis [1] = test: Fungicidal activity against Candida parapsilosis MTCC 1744 incubated for 24 hrs followed by transfer of microbial suspension to Sabouraud dextrose agar plates and measured after 24 hrs post transfer; format: functional; conditions: Lodderomyces parapsilosis, MTCC 1744, 24 h
Candida albicans [2] = test: Antifungal activity against Candida albicans MTCC 3958 after 24 hrs by well diffusion method; format: functional
Staphylococcus aureus [3] = test: Bactericidal activity against Staphylococcus aureus MLS16 MTCC 2940 incubated for 24 hrs followed by transfer of microbial suspension to Mueller Hinton agar plates and measured after 24 hrs post transfer; format: functional; conditions: MLS16 MTCC 2940, 24 h
Candida albicans [4] = test: Fungicidal activity against Candida albicans MTCC 1637 incubated for 24 hrs followed by transfer of microbial suspension to Sabouraud dextrose agar plates and measured after 24 hrs post transfer; format: functional; conditions: MTCC 1637, 24 h
Micrococcus luteus [5] = test: Antibacterial activity against Micrococcus luteus MTCC 2470 after 24 hrs by well diffusion method; format: functional; conditions: MTCC 2470, 24 h
Candida albicans [6] = test: Fungicidal activity against Candida albicans MTCC 7315 incubated for 24 hrs followed by transfer of microbial suspension to Sabouraud dextrose agar plates and measured after 24 hrs post transfer; format: functional; conditions: MTCC 7315, 24 h
Nakaseomyces glabratus [7] = test: Fungicidal activity against Candida glabrata MTCC 3019 incubated for 24 hrs followed by transfer of microbial suspension to Sabouraud dextrose agar plates and measured after 24 hrs post transfer; format: functional; conditions: MTCC 3019, 24 h
Candida albicans [8] = test: Antifungal activity against Candida albicans MTCC 3018 after 24 hrs by well diffusion method; format: functional
Candida albicans [9] = test: Fungicidal activity against Candida albicans MTCC 183 incubated for 24 hrs followed by transfer of microbial suspension to Sabouraud dextrose agar plates and measured after 24 hrs post transfer; format: functional; conditions: MTCC 183, 24 h
Candida albicans [10] = test: Antifungal activity against Candida albicans MTCC 854 after 24 hrs by well diffusion method; format: functional; conditions: MTCC 854, 24 h
Escherichia coli [11] = test: Antibacterial activity against Escherichia coli MTCC 739 after 24 hrs by well diffusion method; format: functional; conditions: MTCC 739, 24 h
Bacillus subtilis [12] = test: Antibiofilm activity against Bacillus subtilis MTCC 121 after 24 hrs by crystal violet staining-based assay; format: functional, organism-based; conditions: Bacillus subtilis, MTCC 121, 24 h; read-out: IC50
Pichia kudriavzevii [13] = test: Antifungal activity against Candida krusei MTCC 3020 after 24 hrs by well diffusion method; format: functional
Candida albicans [14] = test: Fungicidal activity against Candida albicans MTCC 227 incubated for 24 hrs followed by transfer of microbial suspension to Sabouraud dextrose agar plates and measured after 24 hrs post transfer; format: functional; conditions: MTCC 227, 24 h
Candida albicans [15] = test: Antifungal activity against Candida albicans MTCC 7315 after 24 hrs by well diffusion method; format: functional; conditions: MTCC 7315, 24 h
Pichia sporocuriosa [16] = test: Fungicidal activity against Issatchenkia hanoiensis MTCC 4755 incubated for 24 hrs followed by transfer of microbial suspension to Sabouraud dextrose agar plates and measured after 24 hrs post transfer; format: functional; conditions: MTCC 4755, 24 h
Raoultella planticola [17] = test: Antibiofilm activity against Klebsiella planticola MTCC 530 after 24 hrs by crystal violet staining-based assay; format: functional, organism-based; conditions: Klebsiella planticola, MTCC 530, 24 h; read-out: IC50
Pseudomonas aeruginosa [18] = test: Antibiofilm activity against Pseudomonas aeruginosa MTCC 2453 after 24 hrs by crystal violet staining-based assay; format: functional, organism-based; conditions: Pseudomonas aeruginosa, MTCC 2453, 24 h; read-out: IC50
Candida albicans [19] = test: Antifungal activity against Candida albicans MTCC 183 after 24 hrs by well diffusion method; format: functional; conditions: MTCC 183, 24 h
Candida albicans [20] = test: Antifungal activity against Candida albicans MTCC 227 after 24 hrs by well diffusion method; format: functional; conditions: MTCC 227, 24 h
Candida albicans [21] = test: Fungicidal activity against Candida albicans MTCC 854 incubated for 24 hrs followed by transfer of microbial suspension to Sabouraud dextrose agar plates and measured after 24 hrs post transfer; format: functional; conditions: MTCC 854, 24 h
Staphylococcus aureus [22] = test: Antibacterial activity against Staphylococcus aureus MLS16 MTCC 2940 after 24 hrs by well diffusion method; format: functional; conditions: MLS16 MTCC 2940, 24 h
Nakaseomyces glabratus [23] = test: Antifungal activity against Candida glabrata MTCC 3019 after 24 hrs by well diffusion method; format: functional; conditions: MTCC 3019, 24 h
Candida parapsilosis [24] = test: Antifungal activity against Candida parapsilosis MTCC 1744 after 24 hrs by well diffusion method; format: functional; conditions: MTCC 1744, 24 h
Pseudomonas aeruginosa [25] = test: Antibacterial activity against Pseudomonas aeruginosa MTCC 2453 after 24 hrs by well diffusion method; format: functional; conditions: MTCC 2453, 24 h
Pichia sporocuriosa [26] = test: Antifungal activity against Issatchenkia hanoiensis MTCC 4755 after 24 hrs by well diffusion method; format: functional; conditions: MTCC 4755, 24 h
Raoultella planticola [27] = test: Antibacterial activity against Klebsiella planticola MTCC 530 after 24 hrs by well diffusion method; format: functional; conditions: MTCC 530, 24 h
Escherichia coli [28] = test: Bactericidal activity against Escherichia coli MTCC 739 incubated for 24 hrs followed by transfer of microbial suspension to Mueller Hinton agar plates and measured after 24 hrs post transfer; format: functional; conditions: MTCC 739, 24 h
[Candida] aaseri [29] = Antifungal activity against Candida aaseri MTCC 1962 after 24 hrs by well diffusion method; format: functional; conditions: Yamadazyma aaseri, MTCC 1962, 24 h
Candida albicans [30] = test: Fungicidal activity against Candida albicans MTCC 3958 incubated for 24 hrs followed by transfer of microbial suspension to Sabouraud dextrose agar plates and measured after 24 hrs post transfer; format: functional
Candida albicans [31] = test: Antifungal activity against Candida albicans MTCC 3017 after 24 hrs by well diffusion method; format: functional; conditions: MTCC 3017, 24 h
Pichia kudriavzevii [32] = test: Fungicidal activity against Candida krusei MTCC 3020 incubated for 24 hrs followed by transfer of microbial suspension to Sabouraud dextrose agar plates and measured after 24 hrs post transfer; format: functional
Candida albicans [33] = test: Antifungal activity against Candida albicans MTCC 4748 after 24 hrs by well diffusion method; format: functional
Raoultella planticola [34] = test: Bactericidal activity against Klebsiella planticola MTCC 530 incubated for 24 hrs followed by transfer of microbial suspension to Mueller Hinton agar plates and measured after 24 hrs post transfer; format: functional; conditions: MTCC 530, 24 h
Bacillus subtilis [35] = test: Bactericidal activity against Bacillus subtilis MTCC 121 incubated for 24 hrs followed by transfer of microbial suspension to Mueller Hinton agar plates and measured after 24 hrs post transfer; format: functional; conditions: MTCC 121, 24 h
Staphylococcus aureus [36] = test: Antibacterial activity against Staphylococcus aureus MTCC 96 after 24 hrs by well diffusion method; format: functional; conditions: MTCC 96, 24 h
Staphylococcus aureus [37] = test: Antibiofilm activity against Staphylococcus aureus MTCC 96 after 24 hrs by crystal violet staining-based assay; format: functional, organism-based; conditions: Staphylococcus aureus, MTCC 96, 24 h; read-out: IC50
Candida albicans [38] = test: Antifungal activity against Candida albicans MTCC 1637 after 24 hrs by well diffusion method; format: functional; conditions: MTCC 1637, 24 h
Micrococcus luteus [39] = test: Bactericidal activity against Micrococcus luteus MTCC 2470 incubated for 24 hrs followed by transfer of microbial suspension to Mueller Hinton agar plates and measured after 24 hrs post transfer; format: functional; conditions: MTCC 2470, 24 h
Candida albicans [40] = test: Fungicidal activity against Candida albicans MTCC 3018 incubated for 24 hrs followed by transfer of microbial suspension to Sabouraud dextrose agar plates and measured after 24 hrs post transfer; format: functional
Bacillus subtilis [41] = test: Antibacterial activity against Bacillus subtilis MTCC 121 after 24 hrs by well diffusion method; format: functional; conditions: MTCC 121, 24 h
Staphylococcus aureus [42] = test: Antibiofilm activity against Staphylococcus aureus MLS16 MTCC 2940 after 24 hrs by crystal violet staining-based assay; format: functional, organism-based; conditions: Staphylococcus aureus, MLS16 MTCC 2940, 24 h; read-out: IC50
Candida albicans [43] = test: Fungicidal activity against Candida albicans MTCC 4748 incubated for 24 hrs followed by transfer of microbial suspension to Sabouraud dextrose agar plates and measured after 24 hrs post transfer; format: functional
Staphylococcus aureus [44] = test: Bactericidal activity against Staphylococcus aureus MTCC 96 incubated for 24 hrs followed by transfer of microbial suspension to Mueller Hinton agar plates and measured after 24 hrs post transfer; format: functional; conditions: MTCC 96, 24 h
[Candida] aaseri [45] = Fungicidal activity against Candida aaseri MTCC 1962 incubated for 24 hrs followed by transfer of microbial suspension to Sabouraud dextrose agar plates and measured after 24 hrs post transfer; format: functional; conditions: Yamadazyma aaseri, MTCC 1962, 24 h
Pseudomonas aeruginosa [46] = test: Bactericidal activity against Pseudomonas aeruginosa MTCC 2453 incubated for 24 hrs followed by transfer of microbial suspension to Mueller Hinton agar plates and measured after 24 hrs post transfer; format: functional; conditions: MTCC 2453, 24 h
Candida albicans [47] = test: Fungicidal activity against Candida albicans MTCC 3017 incubated for 24 hrs followed by transfer of microbial suspension to Sabouraud dextrose agar plates and measured after 24 hrs post transfer; format: functional; conditions: MTCC 3017, 24 h

O=C(c1nc(-c2ccccc2)c2c(C(F)(F)F)cc(-c3ccccc3)nc2n1)N1CCN(CCO)CC1
31.2 µg/mL: MBC (Staphylococcus aureus [3]) | MFC (Candida albicans [4]) | MFC (Nakaseomyces glabratus [7]) | MFC (Pichia sporocuriosa [16]) | MIC (Candida parapsilosis [24]) | MBC (Escherichia coli [28]) | MIC ([Candida] aaseri [29]) | MBC (Raoultella planticola [34]) | MBC (Bacillus subtilis [35]) | MBC (Micrococcus luteus [39]) | MIC (Bacillus subtilis [41]) | MBC (Pseudomonas aeruginosa [46])
15.6 µg/mL: MIC (Micrococcus luteus [5]) | MIC (Escherichia coli [11]) | MFC (Candida albicans [14]) | MFC (Candida albicans [21]) | MIC (Staphylococcus aureus [22]) | MIC (Nakaseomyces glabratus [23]) | MIC (Pseudomonas aeruginosa [25]) | MIC (Pichia sporocuriosa [26]) | MIC (Raoultella planticola [27]) | MIC (Candida albicans [38]) | MBC (Staphylococcus aureus [44])
62.5 µg/mL: MFC (Candida parapsilosis [1]) | MFC (Candida albicans [6]) | MIC (Candida albicans [15]) | MFC ([Candida] aaseri [45])
10.8 µg/mL: IC50 (Pseudomonas aeruginosa [18]) | IC50 (Staphylococcus aureus [42])
inactive: MIC (Candida albicans [2]) | MIC (Candida albicans [8]) | MIC (Pichia kudriavzevii [13]) | MFC (Candida albicans [30]) | MFC (Pichia kudriavzevii [32]) | MIC (Candida albicans [33]) | MFC (Candida albicans [40]) | MFC (Candida albicans [43])
21.6 µg/mL: IC50 (Bacillus subtilis [12])
5.4 µg/mL: IC50 (Raoultella planticola [17])
2.7 µg/mL: IC50 (Staphylococcus aureus [37])
7.8 µg/mL: MFC (Candida albicans [9]) | MIC (Candida albicans [10]) | MIC (Candida albicans [20]) | MIC (Staphylococcus aureus [36]) | MFC (Candida albicans [47])
3.9 µg/mL: MIC (Candida albicans [19]) | MIC (Candida albicans [31])
